Legend:
Experiment in all cases: ABPP chemical proteomics (LC-MS/MS) in HEK293T cells
Assay type in all cases: cell-based
[1] = target: T1, C21orf33 (Homo sapiens, UniProt P0DPI2)
T1 construct: endogenous in cells; host or cells: HEK293T
T1 sequence (P0DPI2 42-268): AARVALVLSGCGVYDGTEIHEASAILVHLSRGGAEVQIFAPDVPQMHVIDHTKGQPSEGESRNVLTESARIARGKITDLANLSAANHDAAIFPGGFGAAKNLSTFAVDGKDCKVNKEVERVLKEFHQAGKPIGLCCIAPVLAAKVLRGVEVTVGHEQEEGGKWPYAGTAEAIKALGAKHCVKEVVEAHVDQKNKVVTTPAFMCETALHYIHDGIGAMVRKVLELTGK
Experimental: (§1) To explore the selectivity of IMP-2587 and IMP-2586 across the whole proteome, we performed quantitative activity-based protein profiling (ABPP) in HEK293T cells following treatment with IMP-2587 or IMP-2586 (Fig. 3a). After ABP incubation, cells were lysed, and probe-labelled proteins were ligated to biotinylated capture reagents.[27] […] USP30 was outcompeted by corresponding parent inhibitors for each ABP (Fig. 5b and d and Tables S3 and S5, ESI ^†), confirming the high potency and rapid engagement of IMP-2587 and IMP-2586 in cells. […] DESI1 and DESI2 are small ubiquitin-related modifier (SUMO) proteases,[3,29–32] and IMP-2587 and IMP-2586 may offer a starting point for future development of DESI ABPs. […]
(§2) d) Live cell probe incubation, lysate click chemistry and precipitation 6-well HEK293T cells were incubated with media containing compounds ABP 2 and ABP 4 at indicated concentrations for 1 h at 37 °C. The cells were washed with PBS and lysed with lysis buffer (50 μL (1% (v/v) Triton X-100, 0.1% (w/v) sodium dodecyl sulfate (SDS), EDTA-free complete protease inhibitor cocktail (1×, Roche) in PBS on ice for 10 min. The lysates were scraped and transferred to corresponding Lo-Bind Eppendorfs. Each lysate was sonicated for 1 minute, and the samples centrifuges at 5,000 x g at 4 °C for 5 minutes to pellet insoluble cellular debris. The supernatant was collected, and protein concentration was determined using the DC Protein Assay (Bio-Rad) as per manufacturer’s instructions, and normalised to lowest concentrated sample (e.g. 1 mg/mL, using lysis buffer). The following “click mixture” was prepared separately, preparing 6 μL for every 100 μL of […]
(§3) Capture reagent (AzRB/AzT for ABP 2, YnT/YnB for ABP 4 10 mM in DMSO, 1 vol; final concentration […]
(§4) CuSO4 (50 mM in water, 2 vol; final concentration in reaction 1 mM)
(§5) TCEP (50 mM in water, 2 vol; final concentration in reaction 1 mM)
(§6) TBTA (10 mM in DMSO, 1 vol; final concentration in reaction 100 µM)
(§7) The click mixture was vortexed and incubated at room temperature for 2 min before 6 μL of the mixture was added to every 100 μL of lysate. The reaction mixtures were shaken at room temperature for 1 h before being quenched with EDTA (500 mM in H2O) to a final concentration of 10 mM.
(§8) Proteins were precipitated by adding H2O (1 vol), MeOH (2 vol) and CHCl3 (0.5 vol), vortexing briefly then centrifuging at 17,000 × g for 5 min. The top H2O/MeOH layer was discarded and the middle layer of protein pellet and lower CHCl3 layer retained. The suspension was washed with MeOH (300 μL), and sonicated to break up the pellet. The proteins were pelleted by centrifugation at 10,000–17000 × g for 5–10 min or until a compact pellet was formed. The protein pellet was washed once more with MeOH (1 mL). The pellet was resuspended by sonicating and completely dissolving in 1% (w/v) SDS in PBS (to 5 mg/mL protein) before being made up to 1 mg/mL protein with PBS. […]
(§9) f) Neutravidin biotin enrichment (Affinity pull-down)
(§10) Click chemistry and precipitation steps were carried out as described in section 3.2.d, on at least 400ug of protein per sample. The pellet was resuspended by sonicating and completely dissolving in 1% (w/v) SDS in HEPES 50 mM pH 8.0, before being made up to 1 mg/mL protein with HEPES 50 mM pH 8.0 to […]
(§11) achieve a final concentration of 0.2% SDS. 20uL of each samples was collected as TL (Total lysate) samples. Pull down of biotinylated proteins was achieved by incubating samples with pre-equilibrated (3x 1 mL washes with 0.2% (w/v) SDS in HEPES 50 mM pH 8 buffer) Pierce™ NeutrAvidin™ Agarose beads for 3 hours at room temperature. NeutrAvidin™ Agarose beads were used in ratio of 1 μL bead resin per 10ug of protein sample. The beads were subsequently washed by moderate shaking for 10 seconds then briefly pelleting by table-top centrifuge then vacuum aspirating the supernatant with fine-end pipette tips (to not disturb the agarose) after collecting 20 µL supernatant as SN (supernatant […]
(§12) ) samples. […]

[2] = target: T2, ALDH1B1 (Homo sapiens, UniProt P30837)
T2 construct: endogenous in cells; host or cells: HEK293T
T2 sequence (P30837 18-517): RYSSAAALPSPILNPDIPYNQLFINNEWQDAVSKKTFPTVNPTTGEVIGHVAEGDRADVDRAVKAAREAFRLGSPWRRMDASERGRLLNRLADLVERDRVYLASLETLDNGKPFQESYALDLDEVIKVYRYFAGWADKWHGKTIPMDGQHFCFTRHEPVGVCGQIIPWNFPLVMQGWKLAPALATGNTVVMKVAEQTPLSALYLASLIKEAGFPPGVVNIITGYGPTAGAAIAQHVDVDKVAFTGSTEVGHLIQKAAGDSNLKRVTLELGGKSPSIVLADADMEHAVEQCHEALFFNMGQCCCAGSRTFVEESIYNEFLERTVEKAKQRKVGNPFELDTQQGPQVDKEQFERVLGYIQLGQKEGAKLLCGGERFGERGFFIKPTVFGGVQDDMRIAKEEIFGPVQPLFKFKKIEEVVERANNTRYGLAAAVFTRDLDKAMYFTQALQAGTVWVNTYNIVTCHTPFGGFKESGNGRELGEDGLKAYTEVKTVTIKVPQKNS
Experimental: as §1, §2, §3, §4, §5, §6, §7, §8, §9, §10, §11, §12

[3] = target: T3, ISOC1 (Homo sapiens, UniProt Q96CN7)
T3 construct: endogenous in cells; host or cells: HEK293T
T3 sequence (Q96CN7 1-298): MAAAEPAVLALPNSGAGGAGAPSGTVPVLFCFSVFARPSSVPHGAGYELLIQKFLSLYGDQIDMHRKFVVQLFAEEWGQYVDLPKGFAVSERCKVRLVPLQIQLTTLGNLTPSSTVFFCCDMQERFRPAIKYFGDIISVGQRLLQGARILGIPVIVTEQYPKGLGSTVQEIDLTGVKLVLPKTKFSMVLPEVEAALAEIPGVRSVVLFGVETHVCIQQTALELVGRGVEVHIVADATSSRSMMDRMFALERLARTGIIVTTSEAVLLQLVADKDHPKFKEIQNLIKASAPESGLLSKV
Experimental: as §1, §2, §3, §4, §5, §6, §7, §8, §9, §10, §11, §12

[4] = IMP-2586 labelling vs DMSO, 30 nM, 10 min, HEK293T (Table S4, Fig.5c)
[5] = IMP-2587 labelling vs DMSO, 30 nM, 10 min, HEK293T (Table S2, Fig.5a)
[6] = compound 1 out-competition with IMP-2587 labelling, HEK293T (Table S3, Fig.5b)
[7] = compound 3 out-competition with IMP-2586 labelling, HEK293T (Table S5, Fig.5d)

N#CN1CC[C@@H](NC(=O)c2cc(-c3ccccc3Oc3ccc(N=[N+]=[N-])cc3)n[nH]2)C1 [IMP-2586]
Difference (log2 fold change of enrichment) [1, 4]: 3.93 | Difference (log2 fold change of enrichment) [2, 4]: 2.25 | Difference (log2 fold change of enrichment) [3, 4]: 1.71

C#Cc1cccc(-c2cc(NC(=O)CC3CCN(C#N)C3)on2)c1 (centres unmarked) [IMP-2587]
Difference (log2 fold change of enrichment) [1, 5]: 0.92 | Difference (log2 fold change of enrichment) [2, 5]: 3.53 | Difference (log2 fold change of enrichment) [3, 5]: 4.06

N#CN1CC[C@H](CC(=O)Nc2cc(-c3cccc(Cl)c3)no2)C1 [compound 1, reference compound]
Difference (log2 fold change of enrichment) [2, 6]: -3.81 | Difference (log2 fold change of enrichment) [3, 6]: -3.50

N#CN1CC[C@@H](NC(=O)c2cc(-c3ccccc3Oc3ccccc3)n[nH]2)C1 [compound 3, reference compound]
Difference (log2 fold change of enrichment) [1, 7]: -3.65 | Difference (log2 fold change of enrichment) [2, 7]: -1.78 | Difference (log2 fold change of enrichment) [3, 7]: -1.80
